According to ChEMBL document CHEMBL2034959, “Hesperetin upregulates ABCA1 expression and promotes cholesterol efflux from THP-1 macrophages” (J Nat Prod, 2012):
The source made the active and inactive calls.

Legend:
Type in all cases: cell-based
[1] = target: T1, Peroxisome proliferator-activated receptor gamma (Homo sapiens) (UniProt P37231); experiment: Induction of PPARgamma enhancer activity in human THP1 cells after 24 hrs by luciferase reporter gene analysis; conditions: THP-1
T1 sequence (whole entry): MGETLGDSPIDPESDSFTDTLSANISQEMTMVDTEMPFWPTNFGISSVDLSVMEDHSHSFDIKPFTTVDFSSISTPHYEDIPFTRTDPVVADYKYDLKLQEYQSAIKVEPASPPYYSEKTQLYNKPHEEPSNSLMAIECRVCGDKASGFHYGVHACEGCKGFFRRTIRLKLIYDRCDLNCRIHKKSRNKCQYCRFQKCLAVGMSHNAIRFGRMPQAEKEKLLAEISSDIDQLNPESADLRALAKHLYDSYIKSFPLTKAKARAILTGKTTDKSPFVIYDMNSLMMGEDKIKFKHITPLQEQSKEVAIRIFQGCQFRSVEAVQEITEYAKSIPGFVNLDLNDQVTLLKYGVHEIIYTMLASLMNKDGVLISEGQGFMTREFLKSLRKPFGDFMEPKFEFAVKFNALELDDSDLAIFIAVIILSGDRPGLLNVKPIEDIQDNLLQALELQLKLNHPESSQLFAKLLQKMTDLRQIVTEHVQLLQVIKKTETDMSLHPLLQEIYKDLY

[2] = target: T2, Oxysterols receptor LXR-alpha (Homo sapiens) (UniProt Q13133); experiment: Induction of LXRalpha enhancer activity in human THP1 cells after 24 hrs by luciferase reporter gene analysis; conditions: THP-1
T2 sequence (whole entry): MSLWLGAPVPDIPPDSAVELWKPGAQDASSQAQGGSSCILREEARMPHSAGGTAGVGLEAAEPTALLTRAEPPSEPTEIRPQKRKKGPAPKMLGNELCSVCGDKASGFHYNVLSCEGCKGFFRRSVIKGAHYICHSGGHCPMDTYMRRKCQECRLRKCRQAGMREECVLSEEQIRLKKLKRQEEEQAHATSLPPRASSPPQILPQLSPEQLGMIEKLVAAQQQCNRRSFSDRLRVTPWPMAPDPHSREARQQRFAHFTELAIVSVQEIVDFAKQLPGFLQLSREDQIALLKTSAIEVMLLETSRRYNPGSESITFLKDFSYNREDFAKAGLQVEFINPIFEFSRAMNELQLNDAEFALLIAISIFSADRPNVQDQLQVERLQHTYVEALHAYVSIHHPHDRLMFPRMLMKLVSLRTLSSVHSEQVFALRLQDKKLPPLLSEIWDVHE

[3] = target: T2, Oxysterols receptor LXR-alpha (Homo sapiens); experiment: Increase in LXRalpha-mediated ABCA1 protein expression in human THP1 cells at 5 to 15 uM after 48 hrs by Western blotting analysis; conditions: THP-1
THP-1 = experiment: Cytotoxicity against human THP1 cells up to 100 uM after 24 hrs by WST8 assay; conditions: thp-1, 24 h
[4] = target: T2, Oxysterols receptor LXR-alpha (Homo sapiens); experiment: Increase in LXRalpha-mediated ABCA1 mRNA expression in human THP1 cells at 5 to 15 uM after 24 hrs by RT-PCR analysis; conditions: THP-1
[5] = target: T1, Peroxisome proliferator-activated receptor gamma (Homo sapiens); experiment: Induction of PPARgamma-mediated ABCA1 promoter activity in human THP1 cells after 24 hrs by luciferase reporter gene analysis; conditions: THP-1
[6] = target: T2, Oxysterols receptor LXR-alpha (Homo sapiens); experiment: Induction of LXRalpha-mediated ABCA1 promoter activity in human THP1 cells after 24 hrs by luciferase reporter gene analysis; conditions: THP-1

Measured: Activity

COc1ccc([C@@H]2CC(=O)c3c(O)cc(O)cc3O2)cc1O [HESPERETIN]
active: [1] Dose-dependent effect | [2] Dose-dependent effect | [3] | [4] | [5] | [6]
Non-toxic: THP-1
